Reference: ChEMBL document CHEMBL1201862, “PubChem BioAssay data set” (2004)
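Interpolation was linear, between the two tested concentrations surrounding the appropriate level; five concentrations were tested over 48 hours in 96-well plates. GI50 = concentration required for 50% inhibition of growth.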 Active and inactive are the calls of the source. Cut-off read from the data, not from the text of the source: active = GI50 up to about 1.1 µM and inactive = higher.

Experiments:
Assay in all cases: NCI tumour cell line growth inhibition, 48 h
[1] = test system: MDA-N
[2] = test system: SK-MEL-28
[3] = test system: SK-OV-3
[4] = test system: HCT-15
[5] = test system: OVCAR-5
[6] = test system: SN12C
[7] = test system: M14
[8] = test system: IGROV-1
[9] = test system: MOLT-4
[10] = test system: RXF 393
[11] = test system: OVCAR-4
[12] = test system: Malme-3M
[13] = test system: U-251
[14] = test system: NCI-H460
[15] = test system: OVCAR-3
[16] = test system: HL-60
[17] = test system: HOP-92

Row | SMILES | GI50 [1] | GI50 [2] | GI50 [3] | GI50 [4] [µM] | GI50 [5] | GI50 [6] | GI50 [7] | GI50 [8] | GI50 [9] | GI50 [10] | GI50 [11] | GI50 [12] | GI50 [13] | GI50 [14] | GI50 [15] | GI50 [16] | GI50 [17]
1 | O=S(=O)(O)c1cc(Nc2ccnc3ccccc23)c2c(S(=O)(=O)O)cc(S(=O)(=O)O)cc2c1 | > 100 µM (inactive) | > 100 µM (inactive) | > 100 µM (inactive) | > 100 | > 100 µM (inactive) | > 100 µM (inactive) | > 100 µM (inactive) | > 100 µM (inactive) | > 100 µM (inactive) | > 100 µM (inactive) | > 100 µM (inactive) | > 100 µM (inactive) | > 100 µM (inactive) | > 100 µM (inactive) | > 100 µM (inactive) |  | 
2 | c1ccc(/N=C(\N2CCCC2)N(CCN2CCCC2)c2ccccc2)cc1 |  | > 100 µM (inactive) | 63.4 µM (inactive) | 22.1 | 29.6 µM (inactive) | 29.8 µM (inactive) | 8.34 µM (inactive) | 24.9 µM (inactive) | 3.98 µM (inactive) |  | 32.1 µM (inactive) | > 100 µM (inactive) | 29.9 µM (inactive) | 10.3 µM (inactive) | 20 µM (inactive) | 2.91 µM (inactive) | 22.6 µM (inactive)
3 | COC(=O)[C@H]1NC(=O)CCSSC1(C)C |  | > 100 µM (inactive) |  | > 100 | > 100 µM (inactive) | > 100 µM (inactive) | > 100 µM (inactive) | > 100 µM (inactive) | > 100 µM (inactive) | > 100 µM (inactive) | > 100 µM (inactive) | > 100 µM (inactive) | > 100 µM (inactive) |  | > 100 µM (inactive) | > 100 µM (inactive) | > 100 µM (inactive)
4 | COc1cc(C2SC(=N)Nc3c2c(C)nn3C(=O)Cc2ccccc2)ccc1O (stereo not given) | > 100 µM (inactive) | > 100 µM (inactive) | > 100 µM (inactive) | > 100 |  | > 100 µM (inactive) | > 100 µM (inactive) | > 100 µM (inactive) | > 100 µM (inactive) |  |  | > 100 µM (inactive) |  | > 100 µM (inactive) |  | > 100 µM (inactive) | 
5 | O=C(Nc1ccccc1)c1cc2ccccc2c(/N=N/c2ccc([N+](=O)[O-])cc2)c1O |  | > 100 µM (inactive) | 81.8 µM (inactive) | > 100 | > 100 µM (inactive) | > 100 µM (inactive) | > 100 µM (inactive) | > 100 µM (inactive) | 17 µM (inactive) | 82.4 µM (inactive) | > 100 µM (inactive) | > 100 µM (inactive) | 31.4 µM (inactive) |  | 70.1 µM (inactive) | 1.14 µM (inactive) | 99.3 µM (inactive)
6 | Cc1nc(NC(C)(CO)CO)nc(N/N=C/c2ccc(Cl)cc2)c1C(=O)Nc1ccc(Cl)cc1 | > 100 µM (inactive) | > 100 µM (inactive) | > 100 µM (inactive) | > 100 | > 100 µM (inactive) | > 100 µM (inactive) | > 100 µM (inactive) | > 100 µM (inactive) | 65.5 µM (inactive) | 28.4 µM (inactive) | > 100 µM (inactive) | > 100 µM (inactive) | 74.8 µM (inactive) | > 100 µM (inactive) | > 100 µM (inactive) | > 100 µM (inactive) | 
7 | Cc1cccc(C)c1NC(=O)/C=C/c1ccccc1 | > 100 µM (inactive) | > 100 µM (inactive) | > 100 µM (inactive) | > 100 | > 100 µM (inactive) | > 100 µM (inactive) | > 100 µM (inactive) |  | > 100 µM (inactive) |  | > 100 µM (inactive) | 51.2 µM (inactive) | > 100 µM (inactive) | > 100 µM (inactive) | > 100 µM (inactive) | > 100 µM (inactive) | 
